In test [1] the test system is A-549 (lung) carcinoma cell line. The test is described as follows: Anti-tumor properties, MTT. In kind it is cell-based. To be noted: Homo sapiens, A549.
The test system of test [2] is Salmonella typhi ATCC19430. The test is described as follows: Antimicrobial MIC, agar dilution. In kind it is cell-based. To be noted: Salmonella enterica, read-out: Minimum inhibitory concentration (MIC).
For test [3], the system named is Staphylococcus aureus ATCC25923. Nature of the test: Antimicrobial MIC, agar dilution. (In general: In agar dilution the substance is mixed into plates at graded concentrations.)
For test [4], the system named is Candida albicans (local isolate). Nature of the test: Antimicrobial MIC, agar dilution. Particulars: Candida albicans, read-out: Minimum inhibitory concentration (MIC).
For test [5], the system named is PC3 (prostate) carcinoma cell line. Nature of the test: Anti-tumor properties, MTT. To be noted: Homo sapiens. In kind it is cell-based.
Test [6] has as its system Pseudomonas aeruginosa ATCC27853. The test is described as follows: Antimicrobial MIC, agar dilution.
Test [7] has as its system Streptococcus pyogenes ATCC19615. The test is described as follows: Antimicrobial MIC, agar dilution.
Test [8] deals with lipopolysaccharide-stimulated peritoneal macrophages. The test is described as follows: Production of nitric oxide by lipopolysaccharide-stimulated peritoneal macrophages (Greiss reagent). In kind it is cell-based. On the set-up: Potency (%): % inhibition of nitric oxide production relative to lipopolysaccharide-stimulated macrophages: concentration or dose not given beside the values. To be noted: LPS-stimulated peritoneal macrophages; for Nitric oxide (nitrite) concentration, μM (average ± SD): 24 h, nitrite by Greiss reagent. In outline: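 NO output was quantified as accumulated nitrite, reacting supernatant with Greiss reagent (sulfanilamide/α-naphthylamine) and reading at 532 nm. Beforehand, cells had been incubated 24 h at 37° C. in nitrite-free, 0.1% BSA medium with 0.5–10 ng/ml LPS, with or without catecholamines at […].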

Test [9] deals with PHA-stimulated splenocytes. The test is described as follows: Proliferative response of PHA-stimulated splenocytes (MTT assay). In kind it is cell-based. Particulars: PHA 5 μg/ml, 72 hr; compounds at 5 μM (method says 10 μM); ratio of O.D. versus vehicle control. In outline:
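Readout was MTT absorbance (570 nm, reference 690 nm) after 72 h culture at 37° C. Splenocytes at 1×10^6 cells/well received test compound (10 μM final) alone or plus PHA 5 μg/ml as T-cell mitogen. Values are OD ratios of compound over vehicle control (stimulation index).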
(In general: Formazan colour is commonly taken as a measure of viable cells.)

Test [10] has as its system MCF7 (breast) carcinoma cell line. Nature of the test: Anti-tumor properties, MTT. In kind it is cell-based. Particulars: Homo sapiens, MCF7; read-out: IC50 (μM) MCF7 (breast). In outline:
(§1)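 Cells seeded at 10×10^3 per well for 24 h, then exposed to compound in serum-free medium (final up to 100 μM, 0.5% DMSO vehicle) for 72 h in triplicate. Viability by MTT reduction (4 h, SDS solubilised), absorbance 595 nm/ref 620 nm; IC50 from survival curves.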

In test [11] the test system is HCT116 (colon) carcinoma cell line. The test is described as follows: Anti-tumor properties, MTT. In kind it is cell-based. Particulars: Homo sapiens, HCT-116; read-out: IC50 (μM) HCT116 (colon). In outline:
as §1

Test [12] deals with HepG2 (hepatocellular) carcinoma cell line. Nature of the test: Anti-tumor properties, MTT. In kind it is cell-based. Particulars: Homo sapiens, HepG2; read-out: IC50 (μM) HepG2 (liver). In outline: as §1
The mark [13] stands for this setting: ATCC25923, 18 h, read-out: Minimum inhibitory concentration (MIC).
Setting [14] is: ATCC25923, read-out: Minimum inhibitory concentration (MIC).
Where [15] appears, read: ATCC27853, 18 h, read-out: Minimum inhibitory concentration (MIC).
[16] abbreviates: ATCC27853, read-out: Minimum inhibitory concentration (MIC).
The mark [17] stands for this setting: ATCC19615, 18 h, read-out: Minimum inhibitory concentration (MIC).
The mark [18] stands for this setting: ATCC19615, read-out: Minimum inhibitory concentration (MIC).

Like-named read-outs stand apart in the source and are kept apart here.

In general, IC50 refers to the midpoint of a concentration-inhibition curve. For `CC[C@H](C)[C@H](N)C(=O)Oc1ccc(/C=C/C(=O)CC(=O)/C=C/c2ccc(OC(=O)[C@@H](N)[C@@H](C)CC)c(OC)c2)cc1OC.Cl.Cl` [HCl-L-Ile-Cur, (2S,2′S,3S,3′S)-1,1′-((((1E,6E)-3,5-dioxohepta-1,6-diene-1,7-diyl)bis(2-methoxy-4,1-phenylene))bis(oxy))bis(3-methyl-1-oxopentan-2-aminium) chloride], the IC50 in [1] stood at 20.9 µM; in [5], 34.4 µM; in test [10], 10.2 µM; in test [11], 36.7 µM; in [12], 38.9 µM. Moreover, the MIC was found to be 0.125 µg/mL in test [2] (18 h); 0.187 µM in test [2]; 0.25 µg/mL in [3] (setting [13]); 0.374 µM in test [3] (setting [14]); 0.125 µg/mL in test [4] (18 h); 0.187 µM in test [4]. Besides, the MIC in test [6] (setting [15]) came to 0.25 µg/mL; in [6] (setting [16]) it was 0.374 µM; in [7] (setting [17]), 0.5 µg/mL; in [7] (setting [18]) it was 0.749 µM. Further, in test [8], the “Potency (%): % inhibition of nitric oxide production relative to lipopolysaccharide-stimulated macrophages” value worked out at 35.45%. The “Nitric oxide (nitrite) concentration, μM (average ± SD)” value (“Nitric oxide … (average ± SD)” below) in test [8] was 17.63 ± 1.14 µM. Besides, the “Stimulation Index (average ± SD)” value in test [9] came to 1.59 ± 0.17.

As to `COc1cc(/C=C/C(=O)CC(=O)/C=C/c2ccc(OC(=O)C(C)N)c(OC)c2)ccc1OC(=O)C(C)N.Cl.Cl` (racemic) [HCl-DL-Ala-Cur, 1,1′-((((1E,6E)-3,5-dioxohepta-1,6-diene-1,7-diyl)bis(2-methoxy-4,1-phenylene))bis(oxy))bis(1-oxopropan-2-aminium) chloride], the half-inhibitory concentration (IC50) in test [1] turned out to be 22.2 µM; in test [5], 21.7 µM; in test [10] it was 9.79 µM; in test [11], 66.9 µM; in test [12], 36.8 µM. Further, the MIC stood at 0.25 µg/mL in [2] (18 h); 0.428 µM in [2]; 0.125 µg/mL in test [3] (setting [13]); 0.214 µM in test [3] (setting [14]); 1 µg/mL in test [4] (18 h); 1.71 µM in test [4]. The MIC in test [6] (setting [15]) is 0.5 µg/mL; in [6] (setting [16]) it was 0.857 µM; in [7] (setting [17]) it was 0.25 µg/mL; in test [7] (setting [18]) it was 0.428 µM. For the same compound, the “Potency (%): % inhibition of nitric oxide production relative to lipopolysaccharide-stimulated macrophages” value in [8] turned out to be 27.69%. Also, the “Nitric oxide … (average ± SD)” value in [8] was 19.75 ± 0.97 µM. Also, in test [9], the “Stimulation Index (average ± SD)” value is reported as 1.91 ± 0.15.

Take `CC[C@H](C)[C@H](NC(=O)OC(C)(C)C)C(=O)Oc1ccc(/C=C/C(=O)CC(=O)/C=C/c2ccc(OC(=O)[C@@H](NC(=O)OC(C)(C)C)[C@@H](C)CC)c(OC)c2)cc1OC` [Boc-L-Ile-Cur, ((1E,6E)-3,5-dioxohepta-1,6-diene-1,7-diyl)bis(2-methoxy-4,1-phenylene) (2S,2′S,3S,3′S)-bis(2-((tert-butoxycarbonyl)amino)-3-methylpentanoate)]: the half-inhibitory concentration (IC50) was greater than 100 µM in test [1]; greater than 100 µM in test [5]; 49.6 µM in [10]; greater than 100 µM in test [11]; greater than 100 µM in [12]. The MIC stood at 0.125 µg/mL in test [2] (18 h); 0.157 µM in test [2]; 0.125 µg/mL in [3] (setting [13]); 0.157 µM in test [3] (setting [14]); 2 µg/mL in test [4] (18 h); 2.52 µM in test [4]. The MIC turned out to be 1 µg/mL in [6] (setting [15]), 1.26 µM in test [6] (setting [16]), 0.25 µg/mL in test [7] (setting [17]) and 0.314 µM in test [7] (setting [18]). The “Potency (%): % inhibition of nitric oxide production relative to lipopolysaccharide-stimulated macrophages” value in [8] was determined as 23.82%. The “Nitric oxide … (average ± SD)” value in test [8] came out at 20.81 ± 0.68 µM. Also, in [9], the “Stimulation Index (average ± SD)” value is recorded as 2.07 ± 0.10.

Take `COc1cc(/C=C/C(=O)CC(=O)/C=C/c2ccc(OC(=O)[C@@H](C)NC(=O)OC(C)(C)C)c(OC)c2)ccc1OC(=O)[C@@H](C)NC(=O)OC(C)(C)C` [Boc-D-Ala-Cur, ((1E,6E)-3,5-dioxohepta-1,6-diene-1,7-diyl)bis(2-methoxy-4,1-phenylene) (2R,2′R)-bis(2-((tert-butoxycarbonyl)amino)propanoate)]: the IC50 in [1] was 85.4 µM; in [5] it was greater than 100 µM; in test [10], 29.2 µM; in [11] it was greater than 100 µM; in test [12], greater than 100 µM. The MIC in test [2] (18 h) is 0.25 µg/mL; in [2] it was 0.352 µM; in test [3] (setting [13]), 0.125 µg/mL; in [3] (setting [14]) it was 0.176 µM; in test [4] (18 h), 0.5 µg/mL; in test [4] it was 0.703 µM. Besides, the MIC in [6] (setting [15]) stood at 0.25 µg/mL; in test [6] (setting [16]), 0.352 µM; in [7] (setting [17]), 1 µg/mL; in test [7] (setting [18]), 1.41 µM. Also, the “Potency (%): % inhibition of nitric oxide production relative to lipopolysaccharide-stimulated macrophages” value in test [8] was 23.82%. In addition, the “Nitric oxide … (average ± SD)” value in [8] was determined as 20.81 ± 0.82 µM. Moreover, the “Stimulation Index (average ± SD)” value in test [9] came to 2.07 ± 0.12.

In the case of `COc1cc(/C=C/C(=O)CC(=O)/C=C/c2ccc(OC(=O)C(C)NC(=O)OC(C)(C)C)c(OC)c2)ccc1OC(=O)C(C)NC(=O)OC(C)(C)C` (racemic) [Boc-DL-Ala-Cur, ((1E,6E)-3,5-dioxohepta-1,6-diene-1,7-diyl)bis(2-methoxy-4,1-phenylene) bis(2-((tert-butoxycarbonyl)amino)propanoate)], the IC50 in test [1] is 73.9 µM; in test [5], greater than 100 µM; in [10], 34.8 µM; in test [11], greater than 100 µM; in [12] it was greater than 100 µM. In addition, the MIC in test [2] (18 h) turned out to be 0.25 µg/mL; in test [2], 0.352 µM; in test [3] (setting [13]) it was 0.25 µg/mL; in test [3] (setting [14]), 0.352 µM; in test [4] (18 h), 0.5 µg/mL; in test [4], 0.703 µM. Further, the MIC was 0.25 µg/mL in test [6] (setting [15]), 0.352 µM in test [6] (setting [16]), 0.125 µg/mL in test [7] (setting [17]) and 0.176 µM in [7] (setting [18]). Moreover, in test [8], the “Potency (%): % inhibition of nitric oxide production relative to lipopolysaccharide-stimulated macrophages” value stood at 30.88%. Also, the “Nitric oxide … (average ± SD)” value in [8] turned out to be 18.88 ± 0.46 µM. Also, the “Stimulation Index (average ± SD)” value in test [9] is reported as 1.78 ± 0.07.

With `COc1cc(/C=C/C(=O)CC(=O)/C=C/c2ccc(OC(=O)[C@H](C)N)c(OC)c2)ccc1OC(=O)[C@H](C)N.Cl.Cl` [HCl-L-Ala-Cur, (2S,2′S)-1,1′-((((1E,6E)-3,5-dioxohepta-1,6-diene-1,7-diyl)bis(2-methoxy-4,1-phenylene))bis(oxy))bis(1-oxopropan-2-aminium) chloride], the IC50 stood at 21.7 µM in test [1]; 31.5 µM in test [5]; 10.7 µM in test [10]; 38.8 µM in test [11]; 33.8 µM in [12]. For the same compound, the MIC is 0.5 µg/mL in test [2] (18 h); 0.857 µM in [2]; 0.5 µg/mL in test [3] (setting [13]); 0.857 µM in [3] (setting [14]); 0.5 µg/mL in test [4] (18 h); 0.857 µM in test [4]. In addition, the MIC in test [6] (setting [15]) is 0.25 µg/mL; in test [6] (setting [16]), 0.428 µM; in [7] (setting [17]), 0.5 µg/mL; in test [7] (setting [18]) it was 0.857 µM. Further, the “Potency (%): % inhibition of nitric oxide production relative to lipopolysaccharide-stimulated macrophages” value in test [8] was determined as 46.24%. The “Nitric oxide … (average ± SD)” value in [8] was determined as 14.68 ± 1.20 µM. Further, the “Stimulation Index (average ± SD)” value in test [9] was 1.14 ± 0.18.

Source of the values: patent US10660967B2, “Curcumin conjugates and methods of use thereof” (priority 2016, dated 2020).
